Key:
NvIDS1 (NvTPS) = NvIDS1 (NvTPS) (Nezara viridula, UniProt A0A386JV86); settings: IPP and DMAPP as substrates
Protocol: Full-length NvTPS (NvIDS1) cDNA was cloned into the pEXP5-NT/TOPO (Invitrogen) expression vector as described above and transformed into E. coli BL21(DE3)pLysS cells. Single colonies were selected at 18° C. on LB with ampicillin (100 μg/ml) and chloramphenicol (34 μg/ml). Expression cultures (200 ml of the same medium) were started from 5 ml overnight cultures and incubated at 18° C. for 4-8h. Following induction at an OD600 of 0.50 with 0.5 mM IPTG, cells were cultivated for another 48 h, then washed in 100 ml wash buffer (20 mM Tris-HCl, 50 mM KCl, pH 7), pelleted, and resuspended in 15 ml cell lysis buffer (50 mM NaH2PO4, 300 mM NaCl, 5 mM imidazole, 0.5 mM PMSF, 2 mM DTT, pH 8). Upon sonication for 2×30 s (on ice, 1 min interval, 20% amplitude, Branson Digital Sonifier), the recombinant protein was purified with Ni-NTA agarose (Qiagen) using three washes of 30 mM imidazole and elution as a 1 ml fraction with 250 mM imidazole. Buffer exchange into TPS assay buffer (25 mM HEPES, 10 mMMgCl2,10% glycerol, pH 7) was performed on PD MiniTrap G-25 desalting columns (GE Healthcare Life Sciences).
(§1) IDS Activity Assay and Analysis. […] Upon incubation at 30° C. for 2 h, IDS enzyme products were analyzed on an Agilent 1260 HPLC system (Agilent Technologies) coupled to an API 5000 triple-quadrupole mass spectrometer (AB Sciex Instruments) following the protocol described by Beran et al. 2016.

[1] = target: recombinant NvIDS2 (NvFPPS) (Nezara viridula, UniProt A0A386JVA3); settings: 50 μM IPP and 50 μM DMAPP, 30° C., 2 h, LC-MS
Protocol: In preparation for enzyme assays, a buffer exchange to 25 mM 3-(N-morpholino)-2-hydroxypropanesulfonic acid (MOPSO, pH 7.2, 10% [v/v] glycerol, 1 mM DTT, 5 mM MgCl2) was conducted on PD-10 Desalting Columns (GE Healthcare Life Sciences, Pittsburgh, PA).
as §1

[2] = target: T1, recombinant NvIDS1 (NvTPS) protein (Nezara viridula, UniProt A0A386JV86); experiment: TPS activity assay of purified recombinant NvTPS, products by GC-MS; type: biochemical, N. viridula; settings: 50 μM allylic substrate, 30° C., 1 h
T1 construct: Full-length NvTPS (NvIDS1) cDNA was cloned into the pEXP5-NT/TOPO (Invitrogen) expression vector; His tag (N-terminal histidine fusion tag from pEXP5-NT/TOPO) (N); made in house; host or cells: E. coli BL21(DE3)pLysS
T1 sequence (A0A386JV86 1-378): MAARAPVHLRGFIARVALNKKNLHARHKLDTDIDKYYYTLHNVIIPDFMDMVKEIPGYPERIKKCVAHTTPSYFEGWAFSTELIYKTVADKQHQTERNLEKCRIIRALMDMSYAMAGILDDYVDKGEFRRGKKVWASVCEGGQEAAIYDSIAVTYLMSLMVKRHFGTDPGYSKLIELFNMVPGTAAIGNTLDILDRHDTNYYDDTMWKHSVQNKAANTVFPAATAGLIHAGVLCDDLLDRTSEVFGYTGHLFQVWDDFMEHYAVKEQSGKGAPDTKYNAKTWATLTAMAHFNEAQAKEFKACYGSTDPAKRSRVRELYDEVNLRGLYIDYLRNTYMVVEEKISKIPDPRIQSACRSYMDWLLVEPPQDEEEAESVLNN
Protocol: Heterologous Expression of Recombinant NvTPS.
TPS activity of purified, recombinant NvTPS protein was determined in assay buffer (see above) with 1 mM DTT and 50 μM allylic substrate [(E,E)-, (Z,E)- or (Z,Z)-FPP] in a total volume of 100 μl and with a100 μl hexane overlay. Upon incubation at 30° C. for 1 h, assays were stopped on ice and compounds extracted by mixing using a vortex at maximum speed for 15 s. Phases were separated by centrifuging at 4000×g for 10 min and the hexane phase was removed and dried over MgSO4. One μL of the hexane extract was analyzed by GC-MS.
Gas Chromatography-Mass Spectrometry Analysis and Determination of Absolute Configuration of NvTPS Products. GC-MS analysis of hexane extracts from assays with crude protein lysates or NvTPS recombinant protein was performed using split injection (5:1 ratio) at an injection temperature of 240° C. Compounds were separated on a GC-2010 gas chromatograph (Shimadzu, Kyoto, Japan) with a 30 m×0.25 mm i.d.×0.25 μm film Zebron ZB-XLB column (Phenomenex, Torrance, CA) coupled to a QP2010S mass spectrometer (Shimadzu). Separation steps were as follows: initial 2 min hold at 40° C., followed by a 5° C./min ramp to 220° C., then a 70° C./min ramp to 240° C. followed by a 2 min hold time at 240° C. Mass spectrometry was performed with a 240° C. ion source temperature, 280° C. interface temperature, electron ionization (El) potential of 70 eV, and scan range of 50 to 400 amu. Helium was used as a carrier gas at 1.9 ml/min.

NvTPS = target: T2, NvTPS (Nezara viridula, UniProt A0A386JV86); experiment: Kinetic analysis of NvTPS with [1-3H]-(E,E)-FPP; type: biochemical, N. viridula; settings: (E,E)-FPP as the substrate
T2 construct: Full-length NvTPS (NvIDS1) cDNA was cloned into the pEXP5-NT/TOPO (Invitrogen) expression vector; His tag (N-terminal histidine fusion tag from pEXP5-NT/TOPO) (N); made in house; host or cells: E. coli BL21(DE3)pLysS
T2 sequence (A0A386JV86 1-378): T1 sequence (A0A386JV86 1-378)
Protocol: To determine the apparent Km value of NvTPS for (E,E)-FPP, […] of recombinant protein was incubated with increasing concentrations of [1-3H]-(E,E)-FPP (64 ρCi mmol-1) in a total volume of […]. Assays were incubated at 30° C. for 5 min prior to extraction of the enzyme product with 250 μl hexane. Assays were performed in triplicate. Quantification of the radioactive product was as described by Tholl et al. (2005. Plant. J. 42:757-771). The Km value was calculated by rectangular hyperbolic regression analysis using Hyperbolic Regression Analysis software (HYPER 1.01) (J. S. Easterby, University of Liverpool).

[3] = system: crude protein extract from whole male and female bugs; experiment: Enzyme activity in crude protein extract from whole bugs; type: biochemical, N. viridula; settings: supernatant of homogenized male and female bugs incubated with (E,E)-FPP
Protocol: Enzyme Activity in Crude Protein Assay. Enzyme activity was measured in crude protein extract from whole male and female bugs to determine possible products from enzymes that accept (E,E)-FPP. The supernatant from homogenized bugs was incubated with the substrate and analyzed products extracted by hexane using GC-MS. […] Also, several sesquiterpenes were found in low abundance that were not found in assays of partially purified NvTPS.

[4] = system: crude protein extracts from tissue associated with the ventral sternites of N. viridula; experiment: Terpene synthase activity in crude protein extracts of abdominal cuticle tissue; type: biochemical; settings: 50 μM (E,E)-FPP, 12 h, 30° C.
Protocol: Crude Protein Extracts of N. viridula. Abdominal cuticles from one mature (14-15 days post molt) adult male and female N. viridula were used for crude protein assays. Insects were fixed with hexane vapor in a screw top jar and dissected in phosphate buffered saline (PBS) (137 mM NaCl, 8.1 mM Na2HPO4, 1.5 mM NaH2PO4, 2.7 mM KCl, pH 7.2). Head, thorax and abdominal soft tissues were removed except for epithelial cells lining the cuticle. Abdominal cuticles were then frozen in liquid nitrogen, pulverized with a mortar and pestle, and suspended in assay buffer (25 mM HEPES, 5 mM MgCl2, 10% glycerol, 1 mM DTT, pH 7). Protein concentrations were determined with a Bradford Assay (Bio-Rad, Hercules, CA) according to the manufacturer's protocol resulting in a protein concentration of 1.2 μg/μl and 0.8 μg/μl for female and male tissue, respectively.
TPS Activity Assay. To determine terpene synthase activity in crude protein extracts of male and female abdominal cuticle tissue, 50 μM (E,E)-FPP was added to protein extracts in assay buffer (see above) containing 50 µg protein at a final volume of 200 μl and with a 200 μl hexane overlay to collect volatiles. Following incubation for 12 h at 30° C., enzyme products were extracted by mixing for 15 s using a vortex and phases were separated by centrifuging at 4000×g for 10 min. One μl of the hexane extract was analyzed by GC-MS. […]

recombinant NvIDS2 (NvFPPS), sequence (A0A386JVA3 whole entry): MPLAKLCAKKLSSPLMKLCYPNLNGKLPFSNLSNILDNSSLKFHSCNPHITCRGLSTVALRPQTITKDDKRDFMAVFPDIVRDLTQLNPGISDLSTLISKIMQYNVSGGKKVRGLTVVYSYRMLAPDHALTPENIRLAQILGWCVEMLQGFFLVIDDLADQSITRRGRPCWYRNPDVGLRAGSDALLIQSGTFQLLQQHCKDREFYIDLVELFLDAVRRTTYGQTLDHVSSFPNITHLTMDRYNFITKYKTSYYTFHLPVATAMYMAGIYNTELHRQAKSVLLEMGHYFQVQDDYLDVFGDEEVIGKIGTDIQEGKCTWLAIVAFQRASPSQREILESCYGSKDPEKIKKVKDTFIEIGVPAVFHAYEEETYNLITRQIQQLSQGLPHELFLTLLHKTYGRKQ

isopentenyl diphosphate [IPP]
IDS activity of NvIDS1 (NvIDS1 (NvTPS)): no activity was observed
IDS product of NvIDS2 [1]: (E,E)-FPP as the sole product

CC(C)=CCC/C(C)=C/CC/C(C)=C/COP(=O)(O)OP(=O)(O)O [(E,E)-FPP, (E,E)-farnesyl diphosphate]
enzymatic products of NvIDS1 (TPS activity) [2]: (Z)-α-bisabolene as the main product
Vmax (NvTPS): 11.83±2.14 pkat/mg
Km (NvTPS; 30° C., 5 min, triplicate, read-out: apparent Km value): 0.95 ± 0.37 µM
products in crude protein extract from whole bugs, GC-MS [3]: (Z)-α-bisabolene present in crude protein from males but not females
TPS activity in crude protein extract, products by GC-MS ([4]; extracts from mature females): only little activity
TPS activity in crude protein extract, products by GC-MS ([4]; extracts from mature males): formation of (Z)-α-bisabolene

CC(C)=CCC/C(C)=C/CC/C(C)=C\COP(=O)(O)OP(=O)(O)O [(Z,E)-FPP]
enzymatic products of NvIDS1 (TPS activity) [2]: No enzymatic products were detected

CC(C)=CCC/C(C)=C\CC/C(C)=C\COP(=O)(O)OP(=O)(O)O [(Z,Z)-FPP]
enzymatic products of NvIDS1 (TPS activity) [2]: No enzymatic products were detected

From patent US12180523B2, “Southern green stink bug pheromone synthesis enzymes and uses thereof” (VIRGINIA TECH INTELLECTUAL PROPERTIES, INC., priority 2018, dated 2024)
